Test results from ChEMBL document CHEMBL1221366, “Pitucamycin: structural merger of a phenoxazinone with an epoxyquinone antibiotic” (J Nat Prod, 2010).
Active and inactive are the calls of the source. The calls are words filed in the database; no cut-off is given here.

Tests used:
[1] = test system: Bacillus subtilis; assay: Antimicrobial activity against Bacillus subtilis 6633 B1 by agar diffusion assay; type: functional, organism-based
[2] = test system: MCF7; assay: Antiproliferative activity against human MCF7 cells assessed as inhibition of cell growth; type: functional
[3] = test system: Mycolicibacterium vaccae; assay: Antimicrobial activity against Mycobacterium vaccae 10670 M4 by agar diffusion assay; type: functional, organism-based
[4] = test system: K562; assay: Antiproliferative activity against human K562 cells assessed as inhibition of cell growth; type: functional
[5] = test system: HepG2; assay: Antiproliferative activity against human HepG2 cells assessed as inhibition of cell growth; type: functional
[6] = test system: HEK293; assay: Antiproliferative activity against human HEK293 cells assessed as inhibition of cell growth; type: functional
[7] = test system: Raji; assay: Antiproliferative activity against human Raji cells assessed as inhibition of cell growth; type: functional
[8] = test system: HeLa; assay: Cytotoxicity against human HeLa cells; type: functional
[9] = test system: THP-1; assay: Antiproliferative activity against human THP1 cells assessed as inhibition of cell growth; type: functional
[10] = test system: Staphylococcus aureus; assay: Antimicrobial activity against methicillin-resistant Staphylococcus aureus 134/93R9 by agar diffusion assay; type: functional, organism-based
[11] = test system: Pseudomonas aeruginosa; assay: Antimicrobial activity against Pseudomonas aeruginosa SG137 B7 by agar diffusion assay; type: functional, organism-based
[12] = test system: Staphylococcus aureus; assay: Antimicrobial activity against Staphylococcus aureus 511 B3 by agar diffusion assay; type: functional, organism-based
[13] = test system: Escherichia coli; assay: Antimicrobial activity against Escherichia coli 458 B4 by agar diffusion assay; type: functional, organism-based
[14] = test system: Penicillium chrysogenum; assay: Antimicrobial activity against Penicillium notatum JP36 P1 by agar diffusion assay; type: functional, organism-based
[15] = test system: Candida albicans; assay: Antimicrobial activity against Candida albicans H8 by agar diffusion assay; type: functional, organism-based
[16] = test system: Enterococcus faecalis; assay: Antimicrobial activity against vancomycin-resistant Enterococcus faecalis 1528 R10 by agar diffusion assay; type: functional, organism-based
[17] = test system: Sporobolomyces salmonicolor; assay: Antimicrobial activity against Sporidiobolus salmonicolor 549 H4 by agar diffusion assay; type: functional, organism-based
[18] = Antiproliferative activity against HUVEC assessed as inhibition of cell growth; type: cell-based; settings: human, HUVEC cells

For `O=C(CO)Nc1cc2nc3cc(CO)ccc3oc-2cc1=O` [CHANDRANANIMYCIN D], the Activity [1] was “inactive”, the GI50 [2] was 1.3 µM and the Activity [3] was “inactive”. The GI50 [4] was 16.6 µM, the GI50 [5] was 6.6 µM and the GI50 [6] was 10.3 µM. For the same compound, the GI50 [7] was 9.6 µM, the CC50 [8] was 90.6 µM and the GI50 [9] was 27.6 µM. The Activity [10] was “inactive”, the Activity [11] was “inactive” and the Activity [12] was “inactive”. For the same compound, the Activity [13] was “inactive”, the Activity [14] was “inactive” and the Activity [15] was “inactive”. The Activity [16] was “inactive”, the Activity [17] was “inactive” and the GI50 [18] was 5.3 µM.
Compound `CC(=O)N[C@@H](CSc1c2nc3cc(C(=O)O)ccc3oc-2cc(=O)c1N)C(=O)O` [GRIXAZONE B] has a GI50 [4] greater than 76.4 µM, a CC50 [8] greater than 120 µM and a GI50 [18] greater than 120 µM.
With `NC(=O)C1=C(N)[C@@H](O)[C@H](O)[C@@H](Nc2cc3nc4cc(CO)ccc4oc-3cc2=O)C1=O` [PITUCAMYCIN] the Activity [1] was “inactive”, the Activity [3] was “inactive” and the GI50 [4] was 27.6 µM. The CC50 [8] was 74.8 µM, the Activity [10] was “inactive” and the Activity [11] was “inactive”. For the same compound, the Activity [12] was “inactive”, the Activity [13] was “inactive” and the Activity [14] was “inactive”. The Activity [15] was “inactive”, the Activity [16] was “inactive” and the Activity [17] was “inactive”. For the same compound, the GI50 [18] was 36.6 µM.
